According to ChEMBL document CHEMBL1124916, “Neural networks applied to quantitative structure-activity relationship analysis” (1990):

Tests used:
[1] = Compound was evaluated for the Anti-fighting behavior.; format: functional; parameters: scale not given here
[2] = Evaluation for the Anti-pentylenetetrazole effect.; format: functional; parameters: unit not given here

SMILES	Anti-fighting behaviour [1]	Anti-pent effect [2]
CNC(=O)CN1C(=O)CN=C(c2ccccc2)c2cc([N+](=O)[O-])ccc21	4.55	5.29
CNC(=O)CN1C(=O)CN=C(c2ccccc2)c2cc(C(F)(F)F)ccc21	3.69	5.06
O=C1CN=C(c2ccccc2C(F)(F)F)c2cc([N+](=O)[O-])ccc2N1	4.54	5.7
CN1C(=O)CN=C(c2ccccc2F)c2cc(F)ccc21		3.33
O=C1CN=C(c2ccccc2)c2cc(Br)ccc2N1	4.2	5.2
O=C1CN=C(c2ccccc2Br)c2cc(Cl)ccc2N1	4.85	5.77
CN1C(=O)CN=C(c2ccccc2)c2cc(Cl)ccc21	4.45	5.31
CN1C(=O)CN=C(c2ccccc2F)c2cc(Cl)ccc21	4.78	5.88
O=C1CN=C(c2ccccc2)c2cc(C(F)(F)F)ccc2N1	4.48	5.48
O=C1CN=C(c2ccccc2)c2cc(Cl)ccc2N1CCCO	3.61	4.34
CN(C)c1ccc2c(c1)C(c1ccccc1)=NCC(=O)N2C	3.86	4.69
N#Cc1ccc2c(c1)C(c1ccccc1F)=NCC(=O)N2	4.75	5.63
CN1C(=O)CN=C(c2ccccc2F)c2cc([N+](=O)[O-])ccc21	5.8	6.5
O=C1CN=C(c2ccccc2C(F)(F)F)c2cc(C(F)(F)F)ccc2N1	4.27	4.97
O=C1CN=C(c2ccccc2[N+](=O)[O-])c2cc([N+](=O)[O-])ccc2N1	3.91	5.97
O=C1CN=C(c2ccccc2)c2cc(Cl)ccc2N1Cc1ccccc1	3.56	4.64
O=C1CN=C(c2ccccc2)c2ccccc2N1	3.37	
CN(C)C(=O)CN1C(=O)CN=C(c2ccccc2)c2cc(Cl)ccc21	4.25	5.35

SMILES	Anti-fighting behaviour [1]	Anti-pent effect [2]
C=CCN1C(=O)CN=C(c2ccccc2)c2cc(Cl)ccc21	4.49	5.35
CNC(=O)CN1C(=O)CN=C(c2ccccc2)c2cc(Cl)ccc21	3.63	5.83
CN(C)CCCN1C(=O)CN=C(c2ccccc2F)c2cc(Cl)ccc21	3.97	4.76
COc1ccccc1C1=NCC(=O)Nc2ccc(Cl)cc21	3.48	4.6
O=C1CN=C(c2ccccc2)c2cc(Cl)ccc2N1CC1CC1	4.51	4.9
CCN(CC)CCN1C(=O)CN=C(c2ccccc2)c2cc(Cl)ccc21	3.57	5.06
CN(C)CCN1C(=O)CN=C(c2ccccc2)c2cc(C(F)(F)F)ccc21	4.27	4.76
C=CCN1C(=O)CN=C(c2ccccc2)c2cc(C(F)(F)F)ccc21	4.54	5.03
CN1C(=O)CN=C(c2ccccc2F)c2ccccc21	3.83	4.53
CCN1C(=O)CN=C(c2ccccc2)c2cc(Cl)ccc21	4.17	4.9
CSc1ccc2c(c1)C(c1ccccc1)=NCC(=O)N2C	3.87	3.6
O=C1CN=C(c2ccccc2)c2cc(F)ccc2N1	3.4	
C[S+]([O-])c1ccc2c(c1)C(c1ccccc1)=NCC(=O)N2 (stereo not drawn)		4.08
CCCCSc1ccc2c(c1)C(c1ccccc1)=NCC(=O)N2		3.79
CCSc1ccc2c(c1)C(c1ccccc1)=NCC(=O)N2		3.57
CN(C)c1ccc2c(c1)C(c1ccccc1)=NCC(=O)N2		3.84
CN(C)CCCN1C(=O)CN=C(c2ccccc2)c2cc(Cl)ccc21		3.38
O=C1CN=C(c2ccccc2)c2cc(Cl)ccc2N1		4.65
